Where two headings read alike, the source gives them in different places.
Experiments:
[1] = tested on: HCV genotype 1b (Con1) replicon in HUH-7 cells; assay: HCV replicon luciferase reporter assay, genotype 1b; assay type: cell-based; conditions: Hepatitis C virus, Huh-7, 72 h, 3 days incubation
Method in brief: (§1)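 Replicon inhibition for both genotypes was measured as Renilla luciferase signal (EnduRen, 7.5 μM final, 2 h) after 3-day, 37° C exposure of replicon-bearing HUH-7 cells in 4% FCS DMEM, 0.5% DMSO. The 1b construct carries S1179I; the 1a H77 construct carries P1496L and S2204I. Twenty-point, 3-fold dilutions were fitted four-parametrically for EC50, and CC50 was taken from multiplexed Cell Titer-Blue.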

[2] = tested on: HCV genotype 1a (H77 strain) replicon in HUH-7 cells; assay: HCV replicon luciferase reporter assay, genotype 1a; assay type: cell-based; conditions: Hepatitis C virus, Huh-7, 72 h, 3 days incubation
Method in brief: as §1

[3] = HCV genotype 1b replicon luciferase assay, range class, read-out: LE_1b (EC50, range)
[4] = HCV genotype 1a replicon luciferase assay, range class, read-out: LE_1a (EC50, range)
[5] = GETYPE1B, HCV genotype 1b replicon luciferase, read-out: LE_1b (EC50, range)
[6] = GETYPE1A, HCV genotype 1a replicon luciferase, read-out: LE_1a (EC50, range)
[7] = HCV genotype 1b replicon luciferase, read-out: LE_1b (EC50, range)
[8] = HCV genotype 1a replicon luciferase, read-out: LE_1a (EC50, range)

Row | SMILES | EC50 [1, 3] | EC50 [2, 4] | EC50 [1, 7] | EC50 [2, 8] | further results
1 | COc1ccc2c(O[C@@H]3C[C@H]4C(=O)N[C@]5(C(=O)NS(=O)(=O)C6(CF)CC6)C[C@H]5/C=C\CC[C@@H](C)C[C@@H](C)[C@H](NC(=O)OC(C)(C)C(F)(F)F)C(=O)N4C3)nc(OC)cc2c1 [Compound 1127, 1,1,1-trifluoro-2-methylpropan-2-yl((2R,6S,7R,9R,13aS,14aR,16aS,Z)-2-((3,6-dimethoxyisoquinolin-1-yl)oxy)-14a-(((1-(fluoromethyl)cyclopropyl)sulfonyl)carbamoyl)-7,9-dimethyl-5,16-dioxo-1,2,3,5,6,7,8,9,10,11,13a,14,14a,15,16,16a-hexadecahydrocyclopropa[e]pyrrolo[1,2-a][1,4]diazacyclopentadecin-6-yl)carbamate] | < 5.46 nM | < 5.46 nM | – | – | –
2 | COc1cc2nc(O[C@@H]3C[C@H]4C(=O)N[C@]5(C(=O)NS(=O)(=O)C6(C)CC6)C[C@H]5/C=C\CC[C@@H](C)C[C@@H](C)[C@H](NC(=O)OC(C)(C)C(F)(F)F)C(=O)N4C3)c(C(F)(F)F)nc2cc1F [Compound 4290] | – | – | – | – | EC50 [1, 5]: 0.51 to 1 nM; EC50 [2, 6]: 1.01 to 5 nM
3 | CCOc1ccc2c(O[C@@H]3C[C@H]4C(=O)N[C@]5(C(=O)NS(=O)(=O)C6(C)CC6)C[C@H]5/C=C\CC[C@@H](C)C[C@@H](CC)[C@H](NC(=O)OC(C)(C)C(C)(F)F)C(=O)N4C3)nccc2c1 [Compound 5371, 3,3-difluoro-2-methylbutan-2-yl((2R,6S,7R,9R,13aS,14aR,16aS,Z)-2-((6-ethoxyisoquinolin-1-yl)oxy)-7-ethyl-9-methyl-14a-(((1-methylcyclopropyl)sulfonyl)carbamoyl)-5,16-dioxo-1,2,3,5,6,7,8,9,10,11,13a,14,14a,15,16,16a-hexadecahydrocyclopropa[e]pyrrolo[1,2-a][1,4]diazacyclopentadecin-6-yl)carbamate] | – | – | 0.51 to 1 nM | 1.01 to 5 nM | –
4 | CC[C@@H]1C[C@H](C)CC/C=C\[C@@H]2C[C@@]2(C(=O)NS(=O)(=O)C2CC2)NC(=O)[C@@H]2C[C@@H](Oc3cc(OC)nc4cc(OC)c(F)cc34)CN2C(=O)[C@H]1NC(=O)OC(C)(C)C(C)(F)F [Compound 1202] | – | – | – | – | EC50 [1, 5]: 0.51 to 1 nM; EC50 [2, 6]: 1.01 to 5 nM
5 | CC[C@@H]1C[C@H](C)CC/C=C\[C@@H]2C[C@@]2(C(=O)NS(=O)(=O)C2CC2)NC(=O)[C@@H]2C[C@@H](Oc3nccc4c5c(ccc34)N(C)CCO5)CN2C(=O)[C@H]1NC(=O)C(=O)N(C)C [Compound 5318, N1-((2R,6S,7R,9R,13aS,14aR,16aS,Z)-14a-((cyclopropylsulfonyl)carbamoyl)-7-ethyl-9-methyl-2-((4-methyl-3,4-dihydro-2H-[1,4]oxazino[2,3-f]isoquinolin-7-yl)oxy)-5,16-dioxo-1,2,3,5,6,7,8,9,10,11,13a,14,14a,15,16,16a-hexadecahydrocyclopropa[e]pyrrolo[1,2-a][1,4]diazacyclopentadecin-6-yl)-N2,N2-dimethyloxalamide] | – | – | < 5.46 nM | < 5.46 nM | –
6 | COCCn1nc(O[C@@H]2C[C@H]3C(=O)N[C@]4(C(=O)NS(=O)(=O)C5(C)CC5)C[C@H]4/C=C\CC[C@@H](C)C[C@@H](C)[C@H](NC(=O)OC(C)(C)C)C(=O)N3C2)c2ccccc2c1=O [Compound 1006, tert-butyl ((2R,6S,7R,9R,13aS,14aR,16aS,Z)-2-((3-(2-methoxyethyl)-4-oxo-3,4-dihydrophthalazin-1-yl)oxy)-7,9-dimethyl-14a-(((1-methylcyclopropyl)sulfonyl)carbamoyl)-5,16-dioxo-1,2,3,5,6,7,8,9,10,11,13a,14,14a,15,16,16a-hexadecahydrocyclopropa[e]pyrrolo[1,2-a][1,4]diazacyclopentadecin-6-yl)carbamate] | 4.82 to 103 nM | 4.82 to 103 nM | – | – | –
7 | COc1ccc2c(O[C@@H]3C[C@H]4C(=O)N[C@]5(C(=O)NS(=O)(=O)C6CC6)C[C@H]5/C=C\CC[C@@H](C)C[C@@H](C)[C@H](NC(=O)OC(C)(C)C)C(=O)N4C3)nc(-c3ccc(OC(C)C)cc3)cc2c1 [Compound 4026, tert-butyl (2R,6S,7R,9R,13aS,14aR,16aS,Z)-14a-(cyclopropylsulfonylcarbamoyl)-2-(3-(4-isopropoxyphenyl)-6-methoxyisoquinolin-1-yloxy)-7,9-dimethyl-5,16-dioxo-1,2,3,5,6,7,8,9,10,11,13a,14,14a,15,16,16a-hexadecahydrocyclopropa[e]pyrrolo[1,2-a][1,4]diazacyclopentadecin-6-ylcarbamate] | – | – | < 5.46 nM | < 5.46 nM | –
8 | C[C@@H]1CC/C=C\[C@@H]2C[C@@]2(C(=O)NS(=O)(=O)C2(C)CC2)NC(=O)[C@@H]2C[C@@H](Oc3nccc4c5c(ccc34)N(C)CCO5)CN2C(=O)[C@@H](NC(=O)OC(C)(C)C(F)(F)F)[C@H](C)C1 [Compound 5296, 1,1,1-trifluoro-2-methylpropan-2-yl((2R,6S,7R,9R,13aS,14aR,16aS,Z)-7,9-dimethyl-2-((4-methyl-3,4-dihydro-2H-[1,4]oxazino[2,3-f]isoquinolin-7-yl)oxy)-14a-(((1-methylcyclopropyl)sulfonyl)carbamoyl)-5,16-dioxo-1,2,3,5,6,7,8,9,10,11,13a,14,14a,15,16,16a-hexadecahydrocyclopropa[e]pyrrolo[1,2-a][1,4]diazacyclopentadecin-6-yl)carbamate] | – | – | < 5.46 nM | < 5.46 nM | –
9 | C[C@H]1CC/C=C\[C@@H]2C[C@@]2(C(=O)NS(=O)(=O)C2CC2)NC(=O)[C@@H]2C[C@@H](Oc3nccc4c5c(ccc34)OC(F)(F)O5)CN2C(=O)[C@@H](NC(=O)OC(C)(C)C)[C@H](C)C1 [Compound 5256, tert-butyl ((2R,6S,7R,9S,13aS,14aR,16aS,Z)-14a-((cyclopropylsulfonyl)carbamoyl)-2-((2,2-difluoro-[1,3]dioxolo[4,5-f]isoquinolin-6-yl)oxy)-7,9-dimethyl-5,16-dioxo-1,2,3,5,6,7,8,9,10,11,13a,14,14a,15,16,16a-hexadecahydrocyclopropa[e]pyrrolo[1,2-a][1,4]diazacyclopentadecin-6-yl)carbamate] | – | – | 4.82 to 103 nM | 4.82 to 103 nM | EC50 ([1]; HCV genotype 1b replicon luciferase, read-out: LE_1b (EC50)): 12.9 nM; EC50 ([2]; HCV genotype 1a replicon luciferase, read-out: LE_1a (EC50)): 20.9 nM
10 | COCCOc1cnc(O[C@@H]2C[C@H]3C(=O)N[C@]4(C(=O)NS(=O)(=O)C5(C)CC5)C[C@H]4/C=C\CC[C@@H](C)C[C@@H](C)[C@H](NC(=O)OC(C)(C)C)C(=O)N3C2)c2ccccc12 [Compound 1027, tert-butyl ((2R,6S,7R,9R,13aS,14aR,16aS,Z)-2-((4-(2-methoxyethoxyl)isoquinolin-1-yl)oxy)-7,9-dimethyl-14a-(((1-methylcyclopropyl)sulfonyl)carbamoyl)-5,16-dioxo-1,2,3,5,6,7,8,9,10,11,13a,14,14a,15,16,16a-hexadecahydrocyclopropa[e]pyrrolo[1,2-a][1,4]diazacyclopentadecin-6-yl)carbamate] | < 5.46 nM | < 5.46 nM | – | – | –
11 | COc1ccc2c(O[C@@H]3C[C@H]4C(=O)N[C@]5(C(=O)NS(=O)(=O)C6CC6)C[C@H]5/C=C\CC[C@H](C)C[C@@H](C)[C@H](NC(=O)OC(C)(C)C(F)(F)F)C(=O)N4C3)nc(-c3ccccc3)cc2c1 [Compound 5191, 1,1,1-trifluoro-2-methylpropan-2-yl((2R,6S,7R,9S,13aS,14aR,16aS,Z)-14a-((cyclopropylsulfonyl)carbamoyl)-2-((6-methoxy-3-phenylisoquinolin-1-yl)oxy)-7,9-dimethyl-5,16-dioxo-1,2,3,5,6,7,8,9,10,11,13a,14,14a,15,16,16a-hexadecahydrocyclopropa[e]pyrrolo[1,2-a][1,4]diazacyclopentadecin-6-yl)carbamate] | – | – | < 5.46 nM | < 5.46 nM | –
12 | COc1cccc2c(O[C@@H]3C[C@H]4C(=O)N[C@]5(C(=O)NS(=O)(=O)C6(CF)CC6)C[C@H]5/C=C\CC[C@@H](C)C[C@@H](C)[C@H](NC(=O)OC(C)(C)C)C(=O)N4C3)nccc12 [Compound 3039, tert-butyl ((2R,6S,7R,9R,13aS,14aR,16aS,Z)-14a-(((1-(fluoromethyl)cyclopropyl)sulfonyl)carbamoyl)-2-((5-methoxyisoquinolin-1-yl)oxy)-7,9-dimethyl-5,16-dioxo-1,2,3,5,6,7,8,9,10,11,13a,14,14a,15,16,16a-hexadecahydrocyclopropa[e]pyrrolo[1,2-a][1,4]diazacyclopentadecin-6-yl)carbamate] | < 5.46 nM | < 5.46 nM | – | – | –
13 | COc1cc2ccnc(O[C@@H]3C[C@H]4C(=O)N[C@]5(C(=O)NS(=O)(=O)C6(C)CC6)C[C@H]5/C=C\CC[C@@H](C)C[C@@H](C)[C@H](NC(=O)OC(C)(C)C(F)(F)F)C(=O)N4C3)c2cc1OC [Compound 5375, 1,1,1-trifluoro-2-methylpropan-2-yl((2R,6S,7R,9R,13aS,14aR,16aS,Z)-2-((6,7-dimethoxyisoquinolin-1-yl)oxy)-7,9-dimethyl-14a-(((1-methylcyclopropyl)sulfonyl)carbamoyl)-5,16-dioxo-1,2,3,5,6,7,8,9,10,11,13a,14,14a,15,16,16a-hexadecahydrocyclopropa[e]pyrrolo[1,2-a][1,4]diazacyclopentadecin-6-yl)carbamate] | – | – | 0.51 to 1 nM | 1.01 to 5 nM | –

From patent US9499550B2 (BRISTOL-MYERS SQUIBB COMPANY, priority 2012, dated 2016)
